Here are results for 4 compounds from patent publication US5244884A, “Thionated analogues of thyrotropin releasing hormone” (The United States of America as represented by the …, priority 1992, dated 1993).

In assay [1] the target is T1, TRH receptor binding sites in pituitary (Rattus norvegicus, UniProt Q01717).
T1 construct: from tissue; host or cells: rat anterior pituitary membrane pellet (homogenate, 39000 g)
T1 sequence (Q01717 1-412): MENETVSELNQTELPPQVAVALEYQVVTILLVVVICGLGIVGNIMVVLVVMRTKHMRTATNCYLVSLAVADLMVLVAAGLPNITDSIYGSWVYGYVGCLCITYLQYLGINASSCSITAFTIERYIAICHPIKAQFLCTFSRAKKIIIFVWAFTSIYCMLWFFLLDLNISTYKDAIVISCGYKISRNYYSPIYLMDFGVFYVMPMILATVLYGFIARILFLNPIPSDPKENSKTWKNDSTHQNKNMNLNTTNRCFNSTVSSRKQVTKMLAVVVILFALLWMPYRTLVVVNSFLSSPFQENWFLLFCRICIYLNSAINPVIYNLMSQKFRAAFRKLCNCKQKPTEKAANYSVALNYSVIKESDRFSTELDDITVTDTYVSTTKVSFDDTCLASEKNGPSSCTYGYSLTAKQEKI
As to the kind of experiment: Receptor binding assay, [3H][3-Me-His2]-TRH competition, anterior pituitary homogenate. The conditions noted are these: rat anterior pituitary membranes; [3H][3-Me-His2]-TRH 3 to 5 nM; 4-6 °C, 2.5 hours; mean ± S.E.M. More on the design: species or system rat (Sprague-Dawley). How it is done: (§1) Adult, male Sprague-Dawley rats were obtained from Taconic Farms (Germantown, N.Y.) and housed at controlled temperature (22° C.) and light cycle (12/12 h) with free access to food and water. On the experimental day, six to eight animals were rapidly decapitated and their brains quickly removed and placed on a cold plate. Anterior pituitary and cortex tissue samples were obtained and processed immediately for receptor-binding experiments.
(§2) All steps of the tissue preparation and binding assays were done on ice. After weighing, pooled tissue samples were homogenized in 25 ml of ice-cold sodium phosphate buffer (0.1M, pH 7.4-7.5), using a Brinkmann Polytron homogenizer (setting 7, 15-20 s). The homogenates were then centrifuged in a refrigerated Sorvall RC5B centrifuge at 39000 g for 30 minutes. The supernatants were discharged and the pellets were resuspended to a concentration of 50 (pituitary) or 100 mg wet weight/ml (ww/ml, cortex) in ice-cold sodium phosphate buffer containing 177 μM Bacitracin.
(§3) Competition experiments were performed by incubating mixtures of tissue resuspensions, [3H][3-Me-His2]-TRH (87 Ci/mmol, Amersham) in 3 to 5 nM final concentration and increasing amounts of analog in a total volume of 100 μl/vial at 4° to 6° C. for 2.5 hours. In order to limit loss of peptides by adherence to glass, 0.05% bovine serum albumin was included in the assays. Nonspecific binding was determined in the presence of 10 μM TRH. The incubation period was terminated by vacuum filtration of the incubation mixture through Whatman GF/B glass filters, using a 48-well cell harvester (Brandel Inc., Gaithersburg, Md.), followed by four rinses with 4 ml each of ice-cold 0.9% NaCl solution. Filters were then placed in scintillation vials and kept overnight in 5 ml of watermiscible scintillation fluid (Beckman Ready-SolvTM HP) each. Bound radioactivity was measured after thorough shaking of the vials on the following day in an LKB 1218 Rackbeta liquid scintillation counter with automatic correction for tritium quenching. Specific binding was calculated as total binding minus nonspecific binding. Inhibition constants, Ki, were determined according to Cheng and Prusoff (1973) using the radioligand-binding analysis software LIGAND (Elsevier-Biosoft; Munson and Rodbard, 1980). Unless otherwise stated, data in tables and figures represent mean values±S.E.M. (standard error of the mean of separate experiments done in duplicate).

The subject of assay [2] is TSH release. Particulars: relative to TRH; cited from earlier work.
For assay [3], the target named is TRH receptor binding sites in cortex. As to the kind of experiment: Receptor binding assay, [3H][3-Me-His2]-TRH competition, cortex homogenate. Set-up: species or system rat (Sprague-Dawley). The conditions noted are these: rat cortex membranes; [3H][3-Me-His2]-TRH 3 to 5 nM; 4-6 °C, 2.5 hours; mean ± S.E.M. As for the experimental part:
as §1, §2
as §3, with “The incubation period was terminated by vacuum filtration of the incubation mixture through Whatman GF/B glass filters, using a 48-well cell harvester (Brandel Inc., Gaithersburg, Md.), followed by four rinses with 4 ml each of ice-cold 0.9% NaCl solution.” left out, “Unless otherwise stated, data in tables and figures represent mean values±S.E.M. (standard error of the mean of separate experiments done in duplicate).” left out

The subject of assay [4] is TSH release. The conditions noted are these: compared with natural TRH; reported by Kruszynski; cited from earlier work.
The subject of assay [5] is TRH receptor. Particulars: compared with natural TRH; reported by Kruszynski; cited from earlier work.

Regarding `NC(=O)[C@@H]1CCCN1C(=O)[C@H](Cc1c[nH]cn1)NC(=O)[C@@H]1CCC(=S)N1` [Example 1, L-thiopyroglutamyl-L-histidyl-L-oroline amide], affinity in assay [1] was put at a Ki of 31.9 ± 2.9 nM.

With `NC(=S)[C@@H]1CCCN1C(=O)[C@H](Cc1c[nH]cn1)NC(=O)[C@@H]1CCC(=S)N1` [Example 2, L-thiopyroglutamyl-L-histidyl-L-proline thioamide], the “potency in stimulating TSH release compared with TRH” value in assay [2] is recorded as “more potent than TRH”. Also, the values for the Ki in assay [1] and in assay [3] were 85.4 ± 17.8 nM and 86.1 ± 6.3 nM, respectively.

On to `NC(=S)[C@@H]1CCCN1C(=O)[C@H](Cc1c[nH]cn1)NC(=O)[C@@H]1CCC(=O)N1` [Example 3, L-pyroglutamyl-L-histidyl-L-proline thioamide], for which the Ki in assay [1] came out at 8 ± 0.2 nM; in assay [3] it was 93.1 ± 16.5 nM. In addition, in assay [4], the TSH releasing activity result is listed as “matching that of natural TRH”. In addition, the “TRH receptor binding affinity” value in assay [5] was “matching that of natural TRH”.

As to `NC(=O)[C@@H]1CCCN1C(=O)[C@H](Cc1c[nH]cn1)NC(=O)[C@@H]1CCC(=O)N1` [TRH, L-pyroglutamyl-L-histidyl-L-proline-amide, reference compound], the Ki in assay [1] amounted to 24.1 ± 14.2 nM; in assay [3], 26.1 ± 4.5 nM.

In general, Ki refers to the equilibrium dissociation constant of an inhibitor or competing ligand from its target. A low value points to a stronger hold on the target.
